Consider 23 compounds from US10221139B2, “Inhibitors of histone demethylases” (Gilead Sciences, Inc., priority 2012, dated 2019).

Usually IC50 stands for the concentration that inhibits the measured activity by half. Read a high IC50 as a need for much substance. Broadly, the EC50 is the concentration needed to bring the measured effect to its halfway point. A low value points to a more potent agent.

For one assay, the target named is T1, PLU1 (KDM5B) (Homo sapiens, UniProt Q9UGL1).
T1 construct: (1-752); host or cells: U2OS
T1 sequence (Q9UGL1 1-752): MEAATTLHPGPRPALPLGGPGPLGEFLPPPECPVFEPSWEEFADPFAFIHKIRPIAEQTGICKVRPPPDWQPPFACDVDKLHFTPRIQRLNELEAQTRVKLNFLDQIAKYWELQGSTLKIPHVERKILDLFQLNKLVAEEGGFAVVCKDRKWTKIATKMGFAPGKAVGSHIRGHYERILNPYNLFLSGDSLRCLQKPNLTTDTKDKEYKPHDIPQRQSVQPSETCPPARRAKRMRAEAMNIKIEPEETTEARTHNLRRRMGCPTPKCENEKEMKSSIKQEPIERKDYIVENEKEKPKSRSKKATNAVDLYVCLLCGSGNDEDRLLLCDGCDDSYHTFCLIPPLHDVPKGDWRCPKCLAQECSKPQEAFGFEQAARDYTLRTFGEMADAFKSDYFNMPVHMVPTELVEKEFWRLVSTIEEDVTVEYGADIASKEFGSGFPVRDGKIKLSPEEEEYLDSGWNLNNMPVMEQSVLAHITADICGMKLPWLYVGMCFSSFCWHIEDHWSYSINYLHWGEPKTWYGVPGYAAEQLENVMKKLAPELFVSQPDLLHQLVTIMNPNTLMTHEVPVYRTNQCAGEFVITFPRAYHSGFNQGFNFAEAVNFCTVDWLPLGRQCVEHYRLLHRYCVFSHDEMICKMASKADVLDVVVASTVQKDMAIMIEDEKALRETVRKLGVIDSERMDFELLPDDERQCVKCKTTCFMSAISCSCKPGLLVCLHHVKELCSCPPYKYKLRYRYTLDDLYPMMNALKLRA
As to the kind of experiment: Immunofluorescence assay in U2OS cells transfected with pCMVHA PLU1 (H3K4me2 mark). Type of assay: cell-based. The conditions noted are these: 20 hours. As to the method:
U2OS cells were seeded 24 hours before transfection. Transfection was performed with Fugene HD transfection reagent as recommended by the manufacturer. 6 hours after transfection, the cells were harvested and seeded into multi well plates into media containing compound. The media used was DMEM containing 5% FBS and pen/strep. 20 hours after incubation of cells with compounds, the cells were washed once in PBS, harvested by fixation with formaldehyde 4% aqueous solution, and washed 2 times in PBS. Subsequently, the cells were permeabilized in PBS with 0.2% Triton X-100 for 10 min at room temperature. Blocking was performed in PBS with 0.2% Triton X-100 and 5% FBS for 45 min at room temperature. The cells were incubated with primary antibodies diluted 1 μg/ml in blocking solution over night at 4° C. The primary antibodies used in the assays were HA.11 (Covance, MMS-101P) and the antibody detecting the mark specified in the Table 6 below. After incubation with primary antibodies, the cells were washed 3 times with PBS, incubated with secondary antibodies diluted 1:1000 (Alexa fluor 594 goat anti rabbit IgG, Invitrogen, A11012; Alexa flour 488 donkey anti mouse IgG, Invitrogen, A21202) and Hoechst, 20 μg/ml (Sigma, 33342) in blocking solution, and washed again 3 times with PBS. Finally, PBS was added and high throughput imaging and analysis were performed by an IN Cell Analyzer 1000 (GE Healthcare). The robot software analyzed individual cells and divided these into HA^+ (transfected cells) and HA^− (non-transfected cells). The IC50 values in Table 7 below were based on an average measure of the staining of the mark specified in the Table 6 below in the transfected cells.
As to `CCN(CCC#N)C(=O)CNCc1cc(C(=O)O)ccn1` [drawing 320, 2-[({[(2-cyanoethyl)(ethyl)carbamoyl]methyl}amino)methyl] pyridine-4-carboxylic acid], the IC50 is 1000 to 50000 nM.

With `CCCCN1CCCC1CCNCc1cc(C(=O)O)ccn1` (centres unmarked) [drawing 321, 2-({[2-(1-butylpyrrolidin-2-yl)ethyl]amino}methyl) pyridine-4-carboxylic acid], the concentration for half-maximal inhibition (IC50) was 1000 to 50000 nM.

In the case of `CN(CCCCN(Cc1ccccc1)C1CC1)C(=O)CNCc1cc(C(=O)O)ccn1` [drawing 323], the IC50 is greater than 50000 nM.

For the next assay, the system named is demethylation of H3K4 (H3K4me3 mark) in U2OS cells. Put plainly: Histone lysine demethylase immunofluorescence assay, non-transfected U2OS cells (H3K4me3 staining). Type of assay: cell-based. To be noted: Homo sapiens, 20 hours. As for the experimental part:
Histone Lysine Demethylase Immunofluorescence Assays for IC50 Value Determination, Non-Transfected Cells
U2OS cells were harvested and seeded into multi well plates into media containing compound. The media used was DMEM containing 5% FBS and pen/strep. 20 hours after incubation of cells with compounds, the cells were washed once in PBS, harvested by fixation with formaldehyde 4% aqueous solution, and washed 2 times in PBS. Subsequently, the cells were permeabilized in PBS with 0.2% Triton X-100 for 10 min at room temperature. Blocking was performed in PBS with 0.2% Triton X-100 and 5% FBS for 45 min at room temperature. The cells were incubated with αH3K4me3 primary antibody (Cell Signaling, #9751S) diluted 1:1000 in blocking solution over night at 4° C. After incubation with primary antibody, the cells were washed 3 times with PBS, incubated with secondary antibody diluted 1:1000 (Alexa fluor 594 goat anti rabbit IgG, Invitrogen, A11012) and Hoechst, 20 μg/ml (Sigma, 33342) in blocking solution, and washed again 3 times with PBS. Finally, PBS was added and high throughput imaging and analysis were performed by an IN Cell Analyzer 1000 (GE Healthcare). The IC50 values seen in Table 4 were based on an average measure of the staining of the H3K4me3 mark in cells.
As for `O=C(CNCc1cc(C(=O)O)ccn1)NC1CCN(CCCc2ccccc2)CC1` [drawing 223, 2-{[({[1-(3-phenylpropyl)piperidin-4-yl]carbamoyl}methyl)amino]methyl} pyridine-4-carboxylic acid], the IC50 was greater than 50000 nM.

Take `COC(=O)c1ccnc(CNCCCN2CCCC2)c1` [drawing 224, methyl 2-({[3-(pyrrolidin-1-yl)propyl]amino}methyl)pyridine-4-carboxylate]: the half-maximal inhibitory concentration (IC50) lay within 1000 to 50000 nM.

Take `CCN(CC)CCCCNCc1cc(C(=O)O)ccn1` [drawing 225, 2-({[4-(diethylamino)butyl]amino}methyl) pyridine-4-carboxylic acid]: the IC50 was 1000 to 50000 nM.

In turn, `CCN(CCN(C)C)C(=O)CNCc1cc(C(=O)O)ccn1` [drawing 226, 2-{[({[2-(dimethylamino)ethyl](ethyl)carbamoyl}methyl)amino]methyl}pyridine-4-carboxylic acid] yielded an IC50 of 1000 to 50000 nM.

On to `CCN(CC)CCCCNCc1cc(C(=O)Oc2ccc(OC)cc2)ccn1` [drawing 227, 4-methoxyphenyl 2-({[4-(diethylamino)butyl]amino}methyl) pyridine-4-carboxylate], for which the IC50 is less than 1000 nM.

`CCOC(=O)c1ccccc1OC(=O)c1ccnc(CNCCCCN(CC)CC)c1` [drawing 228, 2-(ethoxycarbonyl)phenyl 2-({[4-(diethylamino)butyl]amino}methyl) pyridine-4-carboxylate] gave an IC50 of less than 1000 nM.

Take `CCN(CC)CCCCNCc1cc(C(=O)OCCN(C)C)ccn1` [drawing 229, 2-(dimethylamino)ethyl 2-({[4-(diethylamino)butyl]amino}methyl) pyridine-4-carboxylate]: the IC50 lay in the range of 1000 to 50000 nM.

In turn, `CCN(CC)CCCCNCc1cc(C(=O)OCCCN(C)C)ccn1` [drawing 230, 3-(dimethylamino)propyl 2-({[4-(diethylamino)butyl]amino}methyl) pyridine-4-carboxylate] displayed a concentration for half-maximal inhibition (IC50) of 1000 to 50000 nM.

The compound `CCOC(=O)Nc1ccc(COC(=O)c2ccnc(CNCCCCN(CC)CC)c2)cc1` [drawing 231, {4-[(ethoxycarbonyl)amino]phenyl}methyl 2-({[4-(diethylamino)butyl]amino}methyl) pyridine-4-carboxylate] yielded a half-inhibitory concentration (IC50) of less than 1000 nM.

Another assay concerns MCF7 cells. Put plainly: MCF7 cell proliferation assay (ATPlite). Type of assay: cell-based. The conditions noted are these: Homo sapiens, 120 hours. As for the experimental part:
MCF7 cells were seeded at 1250 cells/well in 50 μl medium/well in black 96 well plates. Cells were incubated for 24 hours before addition of compound. Compounds were diluted in complete medium (50 μl/well) and added to the plates in duplicates. The total volume of medium in the wells was 100 μl, and the final concentration of DMSO 0.5%. Complete medium used was DMEM with GlutaMAX containing 10% FBS and pen/strep.
120 hours after addition of compounds, the plates were harvested and analyzed by ATPlite 1 Step (Perkin Elmer, cat no 6016739) according to the manufactures recommendation. Briefly, 100 μl ATP lite solution was added to each well, plates were vortexed at 700 rpm 2 minutes, followed by 20 minutes incubation in the dark, and then analyzed for luminescence on EnSpire 2300 Mulitilabel reader (Perkin Elmer). EC50 values were calculated using GraphPad Prism 6.
As for `C=CC(CCN(C)C(=O)C(F)(F)F)OC(=O)c1ccnc(CNCC(=O)N(CC)CCN(C)C)c1` (centres unmarked) [drawing 284, 5-(2,2,2-trifluoro-N-methylacetamido)pent-1-en-3-yl 2-{[({[2-(dimethylamino)ethyl](ethyl)carbamoyl}methyl)amino]methyl}pyridine-4-carboxylate], the EC50 is less than 1000 nM.

Regarding `CCCCCCCCCCCCCCCC(=O)OCC(COC(=O)CCCCCCCCCCCCCCC)OC(=O)c1ccnc(CNCC(=O)N(CC)CCN(C)C)c1` [drawing 285, 2-(2-{[({[2-(dimethylamino)ethyl](ethyl)carbamoyl}methyl)amino]methyl}pyridine-4-carbonyloxy)-3-(hexadecanoyloxy)propyl hexadecanoate], the EC50 was less than 1000 nM.

`CCCCCCCCCCCCCCCC(=O)OCC(COC(=O)c1ccnc(CNCC(=O)N(CC)CCN(C)C)c1)OC(=O)CCCCCCCCCCCCCCC` (centres unmarked) [drawing 286, 1-(2-{[({[2-(dimethylamino)ethyl](ethyl)carbamoyl}methyl)amino]methyl}pyridine-4-carbonyloxy)-3-(hexadecanoyloxy)propan-2-yl hexadecanoate] displayed a concentration giving a half-maximal response (EC50) of less than 1000 nM.

Turning to `CCN(CCN(C)C)C(=O)CNCc1cc(C(=O)OC)ccn1` [drawing 287, methyl 2-{[({[2-(dimethylamino)ethyl](ethyl)carbamoyl}methyl)amino]methyl}pyridine-4-carboxylate], the concentration giving a half-maximal response (EC50) was less than 1000 nM.

Regarding `CCN(CCN(C)C)C(=O)CNCc1cc(C(=O)N(C)S(C)(=O)=O)ccn1` [drawing 288, 2-{[({[2-(dimethylamino)ethyl](ethyl)carbamoyl}methyl)amino]methyl}-N-methanesulfonyl-N-methylpyridine-4-carboxamide], the EC50 is less than 1000 nM.

As to `CCN(CCN(C)C)C(=O)CNCc1cc(C(=O)N2CCOC2=O)ccn1` [drawing 289, N-[2-(dimethylamino)ethyl]-N-ethyl-2-({[4-(2-oxo-1,3-oxazolidine-3-carbonyl)pyridin-2-yl]methyl}amino)acetamide], the EC50 lay in the range of 1000 to 50000 nM.

As to `CCN(CCN(C)C)C(=O)CNCc1cc(C(=O)OC(CNC(=O)C(F)(F)F)CC(=O)OC(C)C)ccn1` (centres unmarked) [drawing 290, propan-2-yl 3-(2-{[({[2-(dimethylamino)ethyl](ethyl)carbamoyl}methyl)amino]methyl}pyridine-4-carbonyloxy)-4-(trifluoroacetamido)butanoate], the EC50 was in the range of 1000 to 50000 nM.

In turn, `CCN(CCN(C)C)C(=O)CNCc1cc(C(=O)OCC(F)(F)F)ccn1` [drawing 292, 2,2,2-trifluoroethyl 2-{[({[2-(dimethylamino)ethyl](ethyl)carbamoyl}methyl)amino]methyl}pyridine-4-carboxylate] had an EC50 of 1000 to 50000 nM.

Compound `CCN(CCN(C)C)C(=O)CNCc1cc(C(=O)Nc2ncco2)ccn1` [drawing 293, 2-{[({[2-(dimethylamino)ethyl](ethyl)carbamoyl}methyl)amino]methyl}-N-(1,3-oxazol-2-yl)pyridine-4-carboxamide] gave an EC50 of 1000 to 50000 nM.

With `CCN(CCN(C)C)C(=O)CNCc1cc(C(=O)OCCF)ccn1` [drawing 294, 2-fluoroethyl 2-{[({[2-(dimethylamino)ethyl](ethyl)carbamoyl}methyl)amino]methyl}pyridine-4-carboxylate], the EC50 is less than 1000 nM.

In turn, `CCN(CCN(C)C)C(=O)CNCc1cc(C(=O)OCC(F)F)ccn1` [drawing 295, 2,2-difluoroethyl 2-{[({[2-(dimethylamino)ethyl](ethyl)carbamoyl}methyl)amino]methyl}pyridine-4-carboxylate] had an EC50 of less than 1000 nM.
